Results from US20050112573A1, “Method of detecting toxic substance” (priority 2001, published 2005).

Tested on: yeast genes (level of expressed mRNA)
Assay: DNA chip analysis of expressed mRNA of yeast genes after 2 h culture with a toxic chemical substance
Format: cell-based, Saccharomyces cerevisiae S288C
Settings: for The level of expressed mRNA in the presence of chemical substance/ (ratio to absence of chemical substance): stress protein genes, DNA chip
Summary of the method: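 S. cerevisiae S288C grown at 25° C in YPD; toxicant added at log phase at growth-inhibitory, non-lethal levels for 2 h, untreated cells as control. Poly(A) mRNA reverse-transcribed with Cy3/Cy5-dUTP, hybridized to whole-genome chip at 65° C >12 h; value is fluorescence ratio versus untreated.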

C=CC=O [(14), acrolein]
The level of expressed mRNA in the presence of chemical substance/absence: YOR267C (gene YOR267C): 0.9
The level of expressed mRNA in the presence of chemical substance/absence: YOR325W (gene YOR325W): 1.3
level of expressed mRNA in the presence of chemical substance/in its absence (gene YOR336W): 1.1
level of expressed mRNA in the presence of chemical substance/in its absence (gene YOR344C): 0.6
level of expressed mRNA in the presence of chemical substance/in its absence (gene YOR347C): 0.9
The level of expressed mRNA in the presence of chemical substance/absence: YPL005W (gene YPL005W): 1.0
level of expressed mRNA in the presence of chemical substance/in its absence (gene YPL017C): 1.6
The level of expressed mRNA in the presence of chemical substance / the level in the absence of chemical substance, yeast gene YPL107W (gene YPL107W, DNA chip fluorescence ratio to control without chemical, 2 hours culture with chemical, growth-inhibiting non-lethal concentration): 1.7
The level of expressed mRNA in the presence of chemical substance / the level in the absence of chemical substance, yeast gene YPL138C (gene YPL138C, DNA chip fluorescence ratio to control without chemical, 2 hours culture with chemical, growth-inhibiting non-lethal concentration): 1.3
The level of expressed mRNA in the presence of chemical substance/absence: YPL150W (gene YPL150W): 1.0
The level of expressed mRNA in the presence of chemical substance/absence: YPL151C (gene YPL151C): 0.9
The level of expressed mRNA in the presence of chemical substance/absence: YPL152W (gene YPL152W): 1.2
The level of expressed mRNA in the presence of chemical substance/absence: YPL168W (gene YPL168W): 1.0
The level of expressed mRNA in the presence of chemical substance/absence: YPL180W (gene YPL180W): 1.0
The level of expressed mRNA in the presence of chemical substance/absence: YPL188W (gene YPL188W): 1.4
The level of expressed mRNA in the presence of chemical substance/absence: YPL221W (gene YPL221W): 0.8
The level of expressed mRNA in the presence of chemical substance/absence: YPL225W (gene YPL225W): 1.4
The level of expressed mRNA in the presence of chemical substance/absence: YPL249C (gene YPL249C): 1.0
The level of expressed mRNA in the presence of chemical substance/absence: YPL260W (gene YPL260W): 1.1
level of expressed mRNA in the presence of chemical substance/in its absence (gene YPL265W): 1.1
level of expressed mRNA in the presence of chemical substance/in its absence (gene YPR006C): 1.2
level of expressed mRNA in the presence of chemical substance/in its absence (gene YPR026W): 1.5
The level of expressed mRNA in the presence of chemical substance/absence: YPR049C (gene YPR049C): 1.4
The level of expressed mRNA in the presence of chemical substance/absence: YPR061C (gene YPR061C): 1.7
The level of expressed mRNA in the presence of chemical substance/absence: YPR093C (gene YPR093C): 1.1
The level of expressed mRNA in the presence of chemical substance/absence: YPR146C (gene YPR146C): 0.9
The level of expressed mRNA in the presence of chemical substance/absence: YPR148C (gene YPR148C): 1.1
The level of expressed mRNA in the presence of chemical substance/absence: YPR150W (gene YPR150W): 1.4
The level of expressed mRNA in the presence of chemical substance/absence: YPR158W (gene YPR158W): 1.1
The level of expressed mRNA in the presence of chemical substance/absence: YPR169W (gene YPR169W): 1.0
The level of expressed mRNA in the presence of chemical substance/absence: YPR172W (gene YPR172W): 1.6
The level of expressed mRNA in the presence of chemical substance/absence: YPR174C (gene YPR174C): 0.9
The level of expressed mRNA in the presence of chemical substance/The level of expressed mRNA in the absence of chemical substance (yeast gene YAR010C): 1.0
The level of expressed mRNA in the presence of chemical substance/The level of expressed mRNA in the absence of chemical substance (yeast gene YBL005W-A): 1.4
The level of expressed mRNA in the presence of chemical substance/ (ratio to absence), gene YBL038W (yeast gene YBL038W, mitochondria-located protein genes, 2 h culture with chemical): 2.3
The level of expressed mRNA in the presence of chemical substance/The level of expressed mRNA in the absence of chemical substance (yeast gene YBL041W): 2.0
The level of expressed mRNA in the presence of chemical substance/The level of expressed mRNA in the absence of chemical substance (yeast gene YBL043W): 1.9
The level of expressed mRNA in the presence of chemical substance/The level of expressed mRNA in the absence of chemical substance (yeast gene YBL078C): 3.6
The level of expressed mRNA in the presence of chemical substance/ (ratio to absence of chemical substance) (yeast gene YBL093C): 1.0
The level of expressed mRNA in the presence of chemical substance/ (in its absence), gene YBR036C (yeast gene YBR036C, ratio of DNA chip fluorescence intensity to that without chemical substance): 0.8
The level of expressed mRNA in the presence of chemical substance/ (ratio to absence of chemical substance) (yeast gene YBR044C): 0.9
The level of expressed mRNA in the presence of chemical substance/ (ratio to absence), gene YBR122C (yeast gene YBR122C, mitochondria-located protein genes, 2 h culture with chemical): 1.2
The level of expressed mRNA in the presence of chemical substance/The level of expressed mRNA in the absence of chemical substance (yeast gene YBR214W): 0.9
The level of expressed mRNA in the presence of chemical substance/ (ratio to absence), gene YBR251W (yeast gene YBR251W, mitochondria-located protein genes, 2 h culture with chemical): 1.6
The level of expressed mRNA in the presence of chemical substance/ (in its absence), gene YBR298C (yeast gene YBR298C, ratio of DNA chip fluorescence intensity to that without chemical substance): 0.9
The level of expressed mRNA in the presence of chemical substance/The level of expressed mRNA in the absence of chemical substance (yeast gene YCL020W): 1.7
The level of expressed mRNA in the presence of chemical substance/The level of expressed mRNA in the absence of chemical substance (yeast gene YCL027W): 1.2
The level of expressed mRNA in the presence of chemical substance/The level of expressed mRNA in the absence of chemical substance (yeast gene YCR004C): 3.7
The level of expressed mRNA in the presence of chemical substance/ (ratio to absence), gene YCR046C (yeast gene YCR046C, mitochondria-located protein genes, 2 h culture with chemical): 1.3
The level of expressed mRNA in the presence of chemical substance/The level of expressed mRNA in the absence of chemical substance (yeast gene YCR071C): 1.7
The level of expressed mRNA in the presence of chemical substance/ (ratio to absence), gene YCR083W (yeast gene YCR083W, mitochondria-located protein genes, 2 h culture with chemical): 2.4
The level of expressed mRNA in the presence of chemical substance/ (ratio to absence of chemical substance) (yeast gene YCR083W): 2.4
The level of expressed mRNA in the presence of chemical substance/The level of expressed mRNA in the absence of chemical substance (yeast gene YCR088W): 0.9
The level of expressed mRNA in the presence of chemical substance/The level of expressed mRNA in the absence of chemical substance (yeast gene YDL008W): 2.2
The level of expressed mRNA in the presence of chemical substance/ in its absence, gene YDL067C (yeast gene YDL067C, energy system protein genes, 2 h culture with the chemical, ratio to control without chemical): 1.4
The level of expressed mRNA in the presence of chemical substance/ (ratio to absence), gene YDL067C (yeast gene YDL067C, mitochondria-located protein genes, 2 h culture with chemical): 1.4
The level of expressed mRNA in the presence of chemical substance/ in its absence, gene YDL078C (yeast gene YDL078C, energy system protein genes, 2 h culture with the chemical, ratio to control without chemical): 0.8
